Data published in ChEMBL document CHEMBL3734688, “Synthesis and evaluation of 6-methylcoumarin derivatives as potent and selective monoamine oxidase B inhibitors” (Medchemcomm, 2015).

Columns and labels:
Homo sapiens = organism: Homo sapiens; experiment: Selectivity index, ratio of IC50 for recombinant human MAO-A to IC50 for recombinant human MAO-B
[1] = molecular target: T1, Amine oxidase [flavin-containing] B (Homo sapiens, UniProt P27338); experiment: Inhibition of recombinant human MAO-B using p-tyramine as substrate preincubated for 15 mins followed by substrate addition by Amplex Red probe-based fluorometric analysis
T1 sequence (P27338 whole entry): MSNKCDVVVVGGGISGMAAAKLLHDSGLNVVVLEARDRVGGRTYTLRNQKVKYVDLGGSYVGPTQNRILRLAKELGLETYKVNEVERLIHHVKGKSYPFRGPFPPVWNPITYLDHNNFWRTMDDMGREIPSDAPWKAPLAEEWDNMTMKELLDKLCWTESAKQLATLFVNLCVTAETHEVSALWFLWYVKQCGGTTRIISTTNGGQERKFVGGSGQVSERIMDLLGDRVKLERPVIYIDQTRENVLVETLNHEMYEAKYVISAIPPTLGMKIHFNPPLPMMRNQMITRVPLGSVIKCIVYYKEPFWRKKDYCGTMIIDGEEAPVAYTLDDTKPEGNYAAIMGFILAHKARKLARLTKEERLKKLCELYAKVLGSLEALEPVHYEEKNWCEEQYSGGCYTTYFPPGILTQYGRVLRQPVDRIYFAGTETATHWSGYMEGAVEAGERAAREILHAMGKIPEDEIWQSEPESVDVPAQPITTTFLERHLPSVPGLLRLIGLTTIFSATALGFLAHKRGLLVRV

[2] = molecular target: T2, Amine oxidase [flavin-containing] A (Homo sapiens, UniProt P21397); experiment: Inhibition of recombinant human MAO-A using p-tyramine as substrate preincubated for 15 mins followed by substrate addition by Amplex Red probe-based fluorometric analysis
T2 sequence (P21397 whole entry): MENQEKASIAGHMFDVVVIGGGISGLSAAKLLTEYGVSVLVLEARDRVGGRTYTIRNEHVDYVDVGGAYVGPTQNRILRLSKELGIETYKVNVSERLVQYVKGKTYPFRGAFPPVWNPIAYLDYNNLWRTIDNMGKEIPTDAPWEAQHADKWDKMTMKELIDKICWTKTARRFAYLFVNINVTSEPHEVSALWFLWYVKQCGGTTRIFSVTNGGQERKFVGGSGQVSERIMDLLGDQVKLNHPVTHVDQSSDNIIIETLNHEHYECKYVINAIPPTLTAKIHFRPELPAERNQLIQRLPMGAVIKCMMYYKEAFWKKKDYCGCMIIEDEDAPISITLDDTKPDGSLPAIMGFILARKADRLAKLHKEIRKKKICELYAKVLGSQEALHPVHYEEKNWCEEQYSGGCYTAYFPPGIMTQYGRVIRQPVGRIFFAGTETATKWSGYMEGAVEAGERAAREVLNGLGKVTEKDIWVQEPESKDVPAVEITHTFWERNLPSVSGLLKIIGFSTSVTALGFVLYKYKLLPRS

[3] = molecular target: T2, Amine oxidase [flavin-containing] A; experiment: Inhibition of recombinant human MAO-A using p-tyramine as substrate at 100 uM preincubated for 15 mins followed by substrate addition by Amplex Red probe-based fluorometric analysis
SH-SY5Y = experiment: Neurotoxicity in human SH-SY5Y cells assessed as cell viability at 2.5 to 20 uM after 48 hrs by MTT assay; assay type: toxicity, cell-based
HUVEC = experiment: Toxicity in HUVEC assessed as cell viability at 2.5 to 20 uM after 48 hrs by MTT assay; assay type: cell-based; details: human
[4] = Neurotoxicity in rat PC12 cells assessed as cell viability at 2.5 to 20 uM after 48 hrs by MTT assay; assay type: toxicity, cell-based; details: pc-12, 48 h

Row | SMILES | Ratio IC50 (Homo sapiens) | IC50 [1] | IC50 [2] | inhibition (INH) [3] | Activity (SH-SY5Y) | Activity (HUVEC) | Activity [4]
1 | Cc1ccc2oc(=O)c(-c3cccc(OCCBr)c3)cc2c1 | 8.47 | 2450 nM | 20.7 µM | – | – | – | –
2 | Cc1ccc2oc(=O)c(-c3ccc(OCc4ccccc4)cc3)cc2c1 | > 947 | 106 nM | – | Not Active | – | – | –
3 | CC(=O)Oc1ccccc1-c1cc2cc(C)ccc2oc1=O | > 107 | 938 nM | – | Not Active | – | – | –
4 | Cc1ccc2oc(=O)c(-c3cccc4ccccc34)cc2c1 | 8.55 | 6490 nM | 55.5 µM | – | – | – | –
5 | Cc1ccc2oc(=O)c(-c3cccc(OC(=O)N(C)C)c3)cc2c1 | > 22.6 | 4430 nM | – | Not Active | – | – | –
6 | Cc1ccc2oc(=O)c(-c3cccc(OC(=O)c4ccccc4)c3)cc2c1 | 24.2 | 651 nM | 15.8 µM | – | – | – | –
7 | Cc1ccc2oc(=O)c(-c3cccc(OCCN(C)C)c3)cc2c1 | > 459 | 218 nM | – | Not Active | – | – | –
8 | Cc1ccc2oc(=O)c(-c3cccc(OCCCCBr)c3)cc2c1 | 3.79 | 10700 nM | 40.6 µM | – | – | – | –
9 | CC(=O)Oc1cccc(-c2cc3cc(C)ccc3oc2=O)c1 | > 140 | 714 nM | – | Not Active | – | – | –
10 | Cc1ccc2oc(=O)c(-c3cccc(OCCCCN(C)C)c3)cc2c1 | 23.6 | 1130 nM | 26.7 µM | – | – | – | –
11 | Cc1ccc2oc(=O)c(-c3cccs3)cc2c1 | 2.16 | 3760 nM | 8.09 µM | – | – | – | –
12 | Cc1ccc2oc(=O)c(-c3ccc(OCc4cccc(F)c4)cc3)cc2c1 | > 572 | 175 nM | – | Not Active | – | – | –
13 | Cc1ccc2oc(=O)c(-c3cccc(OCCCBr)c3)cc2c1 | 5.3 | 3670 nM | 19.5 µM | – | – | – | –
14 | Cc1ccc2oc(=O)c(-c3ccccc3OCc3ccccc3)cc2c1 | > 390 | 256 nM | – | Not Active | – | – | –
15 | Cc1ccc2oc(=O)c(-c3c[nH]c4ccccc34)cc2c1 | 7.75 | 5670 nM | 43.9 µM | – | – | – | –
16 | Cc1ccc(S(=O)(=O)Oc2cccc(-c3cc4cc(C)ccc4oc3=O)c2)cc1 | > 328 | 305 nM | – | Not Active | – | – | –
17 | Cc1ccc2oc(=O)c(-c3cccnc3)cc2c1 | 2.59 | 2580 nM | 6.67 µM | – | – | – | –
18 | Cc1ccc2oc(=O)c(-c3ccccc3OCc3cccc(F)c3)cc2c1 | > 395 | 253 nM | – | Not Active | – | – | –
19 | Cc1ccc2oc(=O)c(-c3cccc(OCc4cccc(F)c4)c3)cc2c1 | > 1660 | 60.1 nM | – | Not Active | Non-toxic | Non-toxic | Non-toxic
20 | Cc1ccc2oc(=O)c(-c3cccc(OCc4ccccc4)c3)cc2c1 | > 498 | 201 nM | – | Not Active | – | – | –
21 | CC(=O)Oc1ccc(-c2cc3cc(C)ccc3oc2=O)cc1 | > 249 | 401 nM | – | Not Active | – | – | –
22 | Cc1ccc2oc(=O)c(-c3cccc(OCCCN(C)C)c3)cc2c1 | 38.6 | 905 nM | 34.9 µM | – | – | – | –
